{"source": "paper PMC9131456", "about": "“Structure-Based Discovery of Lipoteichoic Acid Synthase Inhibitors” (Journal of Chemical Information and Modeling, 2022)", "key": {"[1]": {"tested_on": "HEK293 cells", "test": "LDH release cytotoxicity assay", "assay_type": "cell-based, human", "settings": "200 μM compound, 24 h", "procedure": "The human embryonic kidney (HEK293) cells were maintained in Dulbecco’s modified Eagle medium (DMEM) supplemented with 10% fetal bovine serum and 100 units/mL of penicillin–streptomycin. For the cell viability assays, cells were seeded onto 96-well plates at a density of 4 × 10^4 cells/well and grown at 37 °C at 5% CO2. After incubating the cells for 24 h, the culture media were replaced with fresh DMEM supplemented with 200 μM of the compounds 1771, compound 4, compound 8, and compound 9 and incubated further for an additional 24 h. The cytotoxicity of these drugs was measured using the LDH Cytotoxicity Assay Kit according to the manufacturer’s instruction (Thermo Scientific). The absorbance at 490 nm was measured with a CLARIOstar microplate reader (BMG Labtech), and the reference wavelength was set at 630 nm."}, "[2]": {"tested_on": "S. aureus (strain Newman)", "test": "Non-lethal S. aureus lung infection mouse model", "assay_type": "in vivo, BALB/c female mice", "settings": "single intranasal dose of 300 μg 3 h postinfection; lungs collected 24 h postinfection; 5 × 10^7 CFU intranasal", "text": "All in vivo experiments were done at the University of Liverpool under the UK Animals (Scientific Procedures) Act 1986 guidelines. The protocols were approved by the UK Home Office and by the University of Liverpool Animal Welfare and Ethics Committee. Six to eight week old BALB/c female mice (Charles River, UK) were used in the study after being left to acclimatize for a minimum of 7 days prior to experimentation. Mice were intranasally infected with 5 × 10^7 CFU of the S. aureus (strain Newman) in 50 μL of sterile phosphate-buffered saline (PBS). The bacterial dose was prepared by incubating 50 μL of an overnight culture in brain heart infusion (BHI) broth (Oxoid, Thermo Fisher Scientific, UK) into 5 mL of fresh BHI. Once the culture reached an OD600 = 2–3, the bacterial numbers were adjusted to the desired dose using sterile PBS. Three hours postinfection, mice were intranasally treated with either 50 μL of sterile PBS (control) or with 300 μg of compounds 1771 and compound 4 dissolved in 50 μL of sterile PBS. The final DMSO concentration was 5%, and the PBS control also contained 5% DMSO. Mice were culled 24 h postinfection; lungs were collected, homogenized, and serially diluted to determine CFU counts.[70] Significant differences were determined using the unpaired two-tailed Student t-test (p = 0.0013)."}, "[3]": {"tested_on": "S. aureus (strain Newman)", "test": "Thin-section TEM ultrastructure analysis", "assay_type": "cell-based", "settings": "5 μM compound 4 or 100 μM compound 9", "procedure": "The TEM imaging protocol was adapted from Garufi et al.[68]S. aureus (strain Newman) was grown in 20 mL of MH2 broth with either DMSO, 5 μM of compound 4 or 100 μM of compound 9 at 37 °C. When the control culture had reached an OD600nm ∼ 1, the cells were pelleted at 1520g and submitted to the Cambridge Advanced Imaging Centre for preimaging processing. Briefly, the cells were washed with water and fixed with 2% glutaraldehyde-4% paraformaldehyde in 0.1 M sodium cacodylate buffer (pH 7.2) for 2 h. After fixation, the cells were stained, dehydrated, and embedded in Spurr resin. The resin was cut into thin sections and viewed using a Tecnai G2 Transmission Electron Microscope at 200 kV with a bottom-mounted AMT CCD digital camera."}, "[4]": {"tested_on": "S aureus (strain Newman) biofilm", "test": "Biofilm assay (crystal violet)", "assay_type": "cell-based", "settings": "20 h, compound tested at 50, 25 and 12.5 μM", "procedure": "Biofilm assays were carried out on 96-well flat-bottom plates using the protocol described by […] et al.[48] Briefly, S aureus (strain Newman) was grown statically in 96-well plates at 37 °C in Tryptic soy broth supplemented with 0.5% glucose. Each well was additionally supplemented with either DMSO or compound 9 to concentrations of 50, 25, and 12.5 μM. After 20 h, the bacterial cultures from the plates were removed, and each well was rinsed with 150 μL of sterilized distilled water thrice. The plates were then incubated for 1 h at 60 °C. After that, the biofilm in each well was stained with 0.05% (w/v) of crystal violet solution using the protocol described by O'Toole.[67] Finally, the stained biofilms were solubilized with 30% acetic acid and quantified at OD600nm using the BMG Labtech CLARIOstar microplate reader."}, "[5]": {"tested_on": "MRSA strain COL", "test": "Potentiation (checkerboard synergy) assay", "assay_type": "cell-based, S. aureus", "procedure": "All the compounds tested in this study were dissolved in dimethyl sulfoxide (DMSO) at an initial stock concentration of 20 mM and stored at −20 °C. These compounds were tested for their antimicrobial activity using the microdilution broth method[66] following the protocol described by Richter et al.[30] Briefly, overnight cultures of S. aureus (strain Newman) grown at 37 °C in cation-adjusted Mueller Hinton II (MH2) broth were adjusted to an OD600nm of 0.6 before back-diluted with a factor of 1:2000 with the same broth. After that, 200 μL of the diluted bacterial culture were dispensed into each well of 96-well plates supplemented with the compounds to the desired concentrations. The plates were then sealed with a moisture membrane barrier and incubated statically for 20 h at 37 °C. After that, the OD600nm values of the cultures in each well were measured using a CLARIOstar microplate reader (BMG Labtech). The procedures for the potentiation assays were by large the same as described above with some variations. In such assays, MRSA strain COL was grown in the 96-well plates supplemented with different concentrations of compound 9 with methicillin, carbenicillin, or polymyxin B in a checkerboard format. Their synergistic effects were quantified by OD600nm measurements using a CLARIOstar microplate reader (BMG Labtech)."}, "[6]": {"settings": "MRSA strain COL, compound 9 at subinhibitory 12.5 μM, checkerboard"}}, "data": [{"smiles": "O=C(COC(=O)c1cn(-c2ccccc2)nc1-c1cccs1)Nc1nnc(-c2ccccc2)o1", "note": "[Compound 4]", "values": [{"measurement": "cytotoxicity (LDH release)", "setting": "[1]", "result": "non-cytotoxic"}, {"measurement": "reduction in recoverable colonies from the lungs", "setting": "[2]", "result": 2, "unit": "log"}]}, {"smiles": "S=C(Nc1ccc(Cl)cc1)Nc1ccc(Sc2nc3ccccc3[nH]2)cc1", "note": "[Compound 9]", "values": [{"measurement": "ultrastructure of treated S. aureus (TEM)", "setting": "[3]", "result": "swollen S. aureus cells with a thickened peptidoglycan layer and cell division defects"}, {"measurement": "cytotoxicity (LDH release)", "setting": "[1]", "result": "not cytotoxic"}, {"measurement": "reduction in biofilm attachment", "setting": "[4]", "result": 50, "unit": "%"}, {"measurement": "reduction of the minimum inhibitory concentration of carbenicillin", "setting": "[5]; [6]", "result": 32, "unit": "fold"}, {"measurement": "reduction of the minimum inhibitory concentration of methicillin", "setting": "[5]; [6]", "result": 16, "unit": "fold"}, {"measurement": "increase in sensitivity toward polymyxin B", "setting": "[5]; MRSA strain treated with compound 9, checkerboard", "result": 4, "unit": "fold"}]}]}
